The text below walks through data of patent US20230203485A1, “METHODS FOR MODULATING MHC-I EXPRESSION AND IMMUNOTHERAPY USES THEREOF” (Dana-Farber Cancer Institute, Inc., priority 2020, published 2023).

The assay relates to HLA-I and IFN pathway proteins. As to the kind of experiment: Whole proteome analysis of MCC cell lines with and without IFN-γ. In kind it is cell-based, human. How it is done:
Protein expression of MCC cell lines was assessed. Briefly, cell pellets of MCC cell lines with and without IFN-γ treatment were lysed in 8M Urea and digested to peptides using LysC and Trypsin (Promega). 400 μg peptides were labeled with TMT10 reagents (Thermo Fisher, 126-MCC-290, 127N-MCC-350_IFN, 127C MCC-275_IFN, 128N MCC-275, 128C MCC-350, 129N_MCC-301_IFN, 129C-MCC-277_IFN, 130N-MCC-290_IFNy, 130C MCC-277, 131 MCC-301) and then pooled for subsequent fractionation and analysis. Pooled peptides were separated into 24 fractions using offline high pH reversed phase fractionation. 1 μg per fraction was loaded onto an analytical column (20-30 cm with 1.9 μm C18 Reprosil beads [Dr. Maisch HPLC GmbH], packed in-house, PicoFrit 75 μM inner diameter, 10 μM emitter [New Objective]). Peptides were eluted with a linear gradient (EasyNanoLC 1000 or 1200, Thermo Scientific) ranging from 6-30% Buffer B (either 0.1% formic acid or 0.5% AcOH and 80% or 90% acetonitrile) over 84 min 30-90% Buffer B over 9 min, and held at 90% Buffer B for 5 min at 200 nl/min. During data dependent acquisition, peptides were analyzed on a Fusion Lumos (Thermo Scientific). Full scan MS was acquired at a 60,000 from 300-1,800 m/z. AGC target was set to 4e5 and 50 ms. […]

As for “IFN-γ: interferon gamma used to stimulate MCC cell lines”, the “class I upregulation in matched proteomes” value (4 MCC lines) is reported as “confirmed”. In addition, for the setting “MCC-350 (non-IFN-γ-responsive), including STAT1 phosphorylation”, the “HLA-I and IFN pathway upregulation at the protein level” value was “global lack of IFN-induced HLA-I and IFN pathway upregulation”.
